Laboratory results: patent publication US20090227533A1, “miR-34 Regulated Genes and Pathways as Targets for Therapeutic Intervention” (priority 2007, published 2009)

Key:
H460 cells = experiment: Alamar Blue proliferation assay, lung cancer cells; format: cell-based, human; conditions: normalized to NC (100%)
Description: (§1) The inventors assessed the therapeutic effect of hsa-miR-34a for lung cancer by using eight individual lung cancer cell lines. To measure cellular proliferation of lung cancer cells, the following non-small cell lung cancer (NSCLC) cells were used: cells derived from lung adenocarcinoma (A549, H522, Calu-3, HCC2935), cells derived from lung squamous cell carcinoma (H226), cell derived from lung adenosquamous cell carcinoma (H596), cells derived from lung bronchioalveolar carcinoma (H1650), and cells derived from lung large cell carcinoma (H460). Synthetic hsa-miR-34a (Pre-miR™-hsa-miR-34a, Ambion cat. no. AM17100) or negative control (NC) miRNA (Pre-miR™ microRNA Precursor Molecule-Negative Control #2; Ambion cat. no. AM17111) was delivered via lipid-based transfection into A549, H522, H596, Calu-3, HCC2935, H1650, H460 cells and via electroporation into H226 cells.
(§2) Lipid-based reverse transfections were carried out in triplicate according to a published protocol (Ovcharenko et al., 2005) and the following parameters: cells (5,000-12,000 per 96 well), 0.1-0.2 μl Lipofectamine™ 2000 (cat. no. 11668-019, Invitrogen Corp., Carlsbad, Calif., USA) in 20 μl OptiMEM (Invitrogen), 30 nM final concentration of miRNA in 100 μl. Electroporation of H226 cells was carried out using the BioRad Gene Pulser Xcell™ instrument (BioRad Laboratories Inc., Hercules, Calif., USA) with the following settings: 5×10^6 cells with 5 μg miRNA in 200 μl OptiMEM (1.6 μM miRNA), square wave pulse at 250 V for 5 ms. Electroporated H226 cells were seeded at 7,000 cells per 96-well in a total volume of 100 μl. All cells except for Calu-3 cells were harvested 72 hours post transfection or electroporation for assessment of cellular proliferation. Calu-3 cells were harvested 10 days post transfection. Proliferation assays were performed using Alamar Blue (Invitrogen) following the manufacturer's instructions. As a control for inhibition of cellular proliferation, siRNA against the motor protein kinesin 11, also known as Eg5, was used. Eg5 is essential for cellular survival of most eukaryotic cells and a lack thereof leads to reduced cell proliferation and cell death (Weil et al., 2002). siEg5 was used in lipid-based transfection following the same experimental parameters that apply to miRNA. The inventors also used a DNA topoisomerase II inhibitor, etoposide, at a final concentration of 10 μM and 50 μM as an internal standard for the potency of miRNAs. Etoposide is an FDA-approved DNA topoisomerase II inhibitor in the treatment of lung cancer. […] Percent (%) proliferation values from the Alamar Blue assay were normalized to values from cells treated with negative control miRNA. Percent proliferation of hsa-miR-34a treated cells relative to cells treated with negative control miRNA (100%) is shown in Table 7 and in FIG. 1.

Calu-3 cells = experiment: Alamar Blue proliferation assay, lung cancer cells; format: cell-based, human; conditions: Calu-3, normalized to NC (100%)
Description: as §1, §2

A549 cells = experiment: Alamar Blue proliferation assay, lung cancer cells; format: cell-based, human; conditions: normalized to NC (100%)
Description: as §1, §2

H522 cells = experiment: Alamar Blue proliferation assay, lung cancer cells; format: cell-based, human; conditions: normalized to NC (100%)
Description: as §1, §2

H596 cells = experiment: Alamar Blue proliferation assay, lung cancer cells; format: cell-based, human; conditions: normalized to NC (100%)
Description: as §1, §2

H1650 cells = experiment: Alamar Blue proliferation assay, lung cancer cells; format: cell-based, human; conditions: normalized to NC (100%)
Description: as §1, §2

SCLC and NSCLC cells = conditions: various lung cancer cells (Tsai et al., 1993; Ohsaki et al., 1992); cited from earlier work
H460 lung cancer cells = experiment: Alamar Blue proliferation assay with pair-wise miRNA combinations; format: cell-based, human; conditions: normalized to 600 pM negative control miRNA
Description: miRNAs function in multiple pathways controlling multiple cellular processes. Cancer cells frequently show aberrations in several different pathways, which determine their oncogenic properties. […] The inventors assessed the efficacy of pair-wise miRNA combinations, administering hsa-miR-34a concurrently with either hsa-miR-124a, hsa-miR-126, hsa-miR-147, hsa-let-7b, hsa-let-7c or hsa-let-7g (Pre-miR™ miRNA, Ambion cat. no. AM17100). H460 lung cancer cells were transiently reverse-transfected in triplicate with each miRNA at a final concentration of 300 pM, resulting in 600 pM of total oligonucleotide. For negative controls, 600 pM of Pre-miR™ microRNA Precursor Molecule-Negative Control #2 (Ambion cat. no. AM17111) were used. To correlate the effect of various combinations with the effect of the sole miRNA, each miRNA at 300 pM was also combined with 300 pM negative control miRNA. Reverse transfection was carried out using the following parameters: 7,000 cells per 96 well, 0.15 μl Lipofectamine™ 2000 (Invitrogen) in 20 μl OptiMEM (Invitrogen), 100 μl total transfection volume. […] Cells were harvested 72 hours after transfection and subjected to Alamar Blue assays (Invitrogen). Percent proliferation values from the Alamar Blue assays were normalized to those obtained from cells treated with 600 pM negative control miRNA. Data are expressed as % proliferation relative to negative control miRNA-treated cells (Table 8, FIG. 3).
Additive activity of pair-wise combinations (e.g., hsa-miR-34a plus hsa-miR-147) is defined as an activity that is greater than the sole activity of each miRNA (e.g., the activity of hsa-miR-34a plus hsa-miR-147 is greater than that observed for hsa-miR-34a plus NC and the activity of hsa-miR-34a plus hsa-miR-147 is greater than that observed for hsa-miR-147 plus NC). Synergistic activity of pair-wise combinations is defined as an activity that is greater than the sum of the sole activity of each miRNA (e.g., the activity of hsa-miR-34a plus hsa-let-7g is greater than that observed for the sum of the activity of hsa-miR-34a plus NC and the activity of hsa-let-7g plus NC). […] The combinatorial use of miRNAs represents a potentially useful therapy for cancer and other diseases.

H226 cells = experiment: Alamar Blue proliferation assay, lung cancer cells (electroporation); format: cell-based, human; conditions: normalized to NC (100%)
Description: as §1
Lipid-based reverse transfections were carried out in triplicate according to a published protocol (Ovcharenko et al., 2005) and the following parameters: cells (5,000-12,000 per 96 well), 0.1-0.2 μl Lipofectamine™ 2000 (cat. no. 11668-019, Invitrogen Corp., Carlsbad, Calif., USA) in 20 μl OptiMEM (Invitrogen), 30 nM final concentration of miRNA in 100 μl. Electroporation of H226 cells was carried out using the BioRad Gene Pulser Xcell™ instrument (BioRad Laboratories Inc., Hercules, Calif., USA) with the following settings: 5×10^6 cells with 5 μg miRNA in 200 μl OptiMEM (1.6 μM miRNA), square wave pulse at 250 V for 5 ms. Electroporated H226 cells were seeded at 7,000 cells per 96-well in a total volume of 100 μl. All cells except for Calu-3 cells were harvested 72 hours post transfection or electroporation for assessment of cellular proliferation. Calu-3 cells were harvested 10 days post transfection. Proliferation assays were performed using Alamar Blue (Invitrogen) following the manufacturer's instructions. As a control for inhibition of cellular proliferation, siRNA against the motor protein kinesin 11, also known as Eg5, was used. […]

COc1cc([C@@H]2c3cc4c(cc3[C@@H](O[C@@H]3O[C@@H]5CO[C@@H](C)O[C@H]5[C@H](O)[C@H]3O)[C@H]3COC(=O)[C@H]23)OCO4)cc(OC)c1O [Etoposide, etoposide]
% proliferation (H460 cells; etoposide 10 μM): 32.13% | % proliferation (H460 cells; etoposide 50 μM): 27.82% | % proliferation (Calu-3 cells; etoposide 10 μM): 20.81% | % proliferation (Calu-3 cells; etoposide 50 μM): 13.53% | % proliferation (A549 cells; etoposide 10 μM): 49.13% | % proliferation (A549 cells; etoposide 50 μM): 42.18% | % proliferation (H522 cells; etoposide 10 μM): 82.13% | % proliferation (H522 cells; etoposide 50 μM): 61.08% | % proliferation (H596 cells; etoposide 10 μM): 88.75% | % proliferation (H596 cells; etoposide 50 μM): 73.39% | % proliferation (H1650 cells; etoposide 10 μM): 90.98% | % proliferation (H1650 cells; etoposide 50 μM): 60.31% | IC50 (SCLC and NSCLC cells): 1 to 25 µM | % proliferation (H460 lung cancer cells; etoposide 10 μM): 20.19% | % proliferation (H460 lung cancer cells; etoposide 50 μM): 14.94% | % proliferation (H226 cells; etoposide 10 μM): 28.17% | % proliferation (H226 cells; etoposide 50 μM): 9.33%
